In publication PMC7988117, “OMN6 a novel bioengineered peptide for the treatment of multidrug resistant Gram negative bacteria” (Scientific Reports, 2021):
Bridge positions count the residues as written; N and C are the ends. Peptide text beside a SMILES is read from it.

Legend:
[1] = test system: Gram-positive strains (S. aureus, E. faecium, E. faecalis, B. cereus); assay: MIC, broth microdilution (CLSI), summary over strains; type: cell-based; conditions: E. faecalis and B. cereus, summary of Table 1
Excerpt: (Italy), an Evotec Company.

HEK293T cells = type: cell-based
Method: HEK-293T17 cells (ATCC CRL-1573) were purchased from ATCC and cultured to 80% confluency according to the ATCC culture method, using high-glucose and L-Glutamine Dulbecco's Modified Eagle Medium (DMEM) medium (ATCC catalog number 30-2002) supplemented with 10% fetal bovine serum and 1% Penicillin–Streptomycin solution (all from Biological Industries). For the experiment purposes, 30,000 cells were transferred to a 96-well plate (experiment plate) in a final volume of 100 µL of medium. The experiment plate was incubated at 5% CO2 and 37 °C for approximately 18 h. After 18 h, medium was discarded, and cells were co-incubated with OMN6, Melittin (Sigma-Aldrich) or dimethyl sulfoxide (DMSO; MP Biomedical LLC, Solon, OH, USA) that were prepared in new medium at desired concentrations. The experiment plate was incubated at 5% CO2 and 37 °C for 24 h. Then, glutaraldehyde at a final concentration of 0.5% was added in all wells for 10 min for cell fixation. After washing the plate 3 times with DDW, the experiment plate was dried overnight. Then, cells were washed with 0.1 M Borate buffer (pH = 8.5) for 1 min. 100 µL Methylene Blue diluted in the same Borate buffer was added to all wells for 1 h. Wells were washed with DDW and plate was dried overnight. Color extraction was executed by adding 0.1 M HCl. After an incubation at 37 °C for 1 h, cell survival was determined via absorbance at 620 nm using a microplate reader.

E. coli GFPuv = type: cell-based, Escherichia coli
Method: E. coli GFPuv bacteria (contribution from Dr. Tsafi Danieli, head of the Protein Expression Facility at the Hebrew University of Jerusalem, Israel) were grown in LB broth (BD) and induced to express the Green Fluorescent Protein (GFP) in auto-induction medium, as previously described by F.W. Studier[31]. Briefly, bacteria were cultured for 3 h at 37 °C while shaking at 200 rpm, in induction medium ZYP-5052 containing 1% N-Z amine AS, 0.5% yeast extract, 50 mM Na2HPO4, 50 mM KH2HPO4, 25 mM (NH4)2SO4, 2 mM MgSO4, 0.5% glycerol, 0.05% glucose and 0.2% lactose. For the bacterium visualization experiment, 2 × 10^6 colony-forming units (CFU) were treated by 16 µg/mL OMN6 or Double-Distilled Water (DDW) for 60 min. Bacteria were monitored with a confocal microscope at a wavelength of 488 nm. Then, bacteria were seeded on LB agar (BD) plates, incubated at 37 °C for 24 h, and CFU were counted. For the supernatant visualization and quantification experiment, 10^5 CFU were co-incubated with 50 µM OMN6 or DDW for 30 min, and bacteria were collected and centrifuged at 5000 rpm for 10 min. Experiment tubes were visualized under UV light. Then, supernatants were collected, and the absence of a significant quantity of bacteria in the supernatants was checked in a microplate reader by absorbance at 600 nm (OD < 0.05). Fluorescence levels were then quantified with excitation at 395 nm and emission at 509 nm.

mouse red blood cells = assay: Hemolysis assay; type: cell-based; conditions: 10% mouse erythrocytes, 6.25–200 µM (27–868 µg/mL), 1 h, 37 °C, absorbance 400 nm
Method: Red Blood Cells (RBCs) suspension was prepared from whole blood extracted from the heart of Hsd:ICR (CD-1) mice (Envigo, Huntingdon, Cambridgeshire, UK). The study was carried out in accordance with relevant guidelines and regulations, and was approved by the Hebrew University Ethics Committee for the Care and Use of Laboratory Animals under approval number NS-15-14575-3. Briefly, blood was collected in a 24 U/mL heparin tube to prevent coagulation. Then cells were washed with Phosphate Buffered Saline (PBS; Biological Industries) and centrifuged at 200g for 10 min at 20 °C. This operation was repeated three times, then remaining RBCs were resuspended in saline or PBS to form a 10% RBC solution. Increasing concentrations of OMN6 or 1% Tween were added to RBCs. After an incubation of 1 h at 37 °C with shaking at 100 rpm, experiment tubes were centrifuged for 10 min at 200g at room temperature. 100 µL supernatant was extracted from each tube and tested according to the Hemoglobin Assay Kit (Sigma-Aldrich). Hemoglobin levels were determined via absorbance at 400 nm.

Structure (SMILES): CC[C@H](C)[C@@H]1NC(=O)CNC(=O)[C@H](CC(=O)O)NC(=O)[C@H](CCCNC(=N)N)NC(=O)[C@H]([C@@H](C)CC)NC(=O)[C@H](CC(N)=O)NC(=O)[C@H](CCC(N)=O)NC(=O)CNC(=O)[C@H](C(C)C)NC(=O)[C@H](CCCCN)NC(=O)[C@H](CCC(=O)O)NC(=O)[C@H]([C@@H](C)CC)NC(=O)[C@H](CCCCN)NC(=O)[C@H](CCCCN)NC(=O)[C@H](Cc2ccccc2)NC(=O)[C@H](CC(C)C)NC(=O)[C@H](CCCCN)NC(=O)[C@H](Cc2c[nH]c3ccccc23)NC(=O)[C@H](CCCCN)NC(=O)[C@@H](NC(=O)[C@@H](N)CCSC)CSSC[C@@H](C(N)=O)NC(=O)[C@H](CCCCN)NC(=O)[C@H](C)NC(=O)[C@H]([C@@H](C)CC)NC(=O)[C@H](CCC(N)=O)NC(=O)[C@H]([C@@H](C)O)NC(=O)[C@H](C)NC(=O)[C@H](CCC(N)=O)NC(=O)CNC(=O)[C@H](C(C)C)NC(=O)[C@H](C(C)C)NC(=O)[C@H](C)NC(=O)[C@H](C(C)C)NC(=O)[C@H](C)NC(=O)[C@@H]2CCCN2C(=O)CNC(=O)[C@H](C)NC(=O)[C@H](CCCCN)NC(=O)[C@H]([C@@H](C)CC)NC1=O [OMN6] (H-MCKWKLFKKIEKVGQNIRDGIIKAGPAVAVVGQATQIAKC-NH2; disulfide 2-40; N-terminus assumed)
- MIC on all tested Gram-positive strains [1]: > 256 µg/mL
- Survival rate of HEK293T cells (HEK293T cells; 6.25–200 µM (27–868 µg/mL), 24 h, Methylene Blue, absorbance 620 nm, all concentrations): not affected
- Therapeutic window (no toxicity to mammalian cells vs MIC value against Gram-negative bacterial species) (HEK293T cells; relative to MIC against Gram-negative species): larger than tenfold
- Reduction in fluorescence arbitrary units (FU) of a bacterium, T = 0 h to T = 1 h (GFP leakage) (E. coli GFPuv; 16 µg/mL, 60 min, confocal microscope 488 nm, single bacterium): 12,000 FU
- CFU on agar plates after treatment (bacterial death) (E. coli GFPuv; 2 × 10^6 CFU, 16 µg/mL, 60 min, then LB agar 37 °C 24 h, data not shown): No CFU
- Level of fluorescence (FU) in supernatants vs DDW control (E. coli GFPuv; E. coli GFPuv 10^5 CFU, 50 µM, 30 min, centrifuged 5000 rpm, excitation 395 nm, emission 509 nm, p = 0.01): distinct increase
- Hemolysis expressed as free Hemoglobin (mouse red blood cells): no hemolysis
